Test results: patent publication US20250196055A1, “PROCESS FOR CAPTURING CO2 FROM A MOBILE SOURCE USING AN AMINO ACID SOLVENT” (SAUDI ARABIAN OIL COMPANY, priority 2021, published 2025)
Values belong to the compound of their own block, whether it stands above or below them.

Columns and labels:
[1] = Solubility testing in gas bubbler/sparger with continuous 9 mol % CO2 in N2; settings: 9 mol % CO2, ambient conditions
[2] = Preliminary solubility testing of CO2-loaded amino/amino-sulfonic acid solutions (precipitation temperature); assay type: physicochemical; settings: for solubility of CO2-loaded solution (in words): CO2 loaded 0.35-0.45 mol CO2/mol alk., lowest limit of apparatus −10° C.; for Precipitation Temperature: ambient pressure, test range −10° C. to 40° C.
Method: Preliminary solubility testing was carried out with various amino and amino-sulfonic acids and blends thereof to determine the propensity for solids precipitation. These blends were loaded with CO2 under representative process conditions: a CO2 loading from 0.35 to 0.45 mol CO2/mol alkalinity at ambient pressure and a temperature from −10° C. to 40° C. CO2 loading was achieved by addition of potassium bicarbonate instead of some potassium hydroxide as the neutralizing agent. The loading (in mol CO2 per mol alkalinity) was determined from the following equation: […]

[3] = Continuous test plant: membrane contactor CO2 absorption from exhaust and solvent regeneration in stripper; settings: for solids at ambient conditions (in words): atmospheric pressure and room temperature

Structure (SMILES): CC(C)(N)C(=O)O [1 m AlBA, Amino isobutyric acid]
precipitation when 9 mol % CO2 continuously injected (in words) [1]: did not precipitate

Structure (SMILES): NCCCS(=O)(=O)O [3 m HTAU, homotaurine]
precipitation when 9 mol % CO2 continuously injected (in words) [1]: did not precipitate

Structure (SMILES): CN[C@@H](C)C(=O)O [3 m NMA, n-methyl-alanine]
precipitation when 9 mol % CO2 continuously injected (in words) [1]: did not precipitate

Structure (SMILES): NCCS(=O)(=O)O [3 m TAU, taurine]
solubility of CO2-loaded solution (in words) [2]: soluble at process temperatures from 40 °C to 120° C., but potentially not soluble at room temperature
Solid Observed ([3]; 210 kPa stripper pressure, 120° C. stripper temperature, 3.75 kg/min liquid, 9 mol % CO2, 25 SCFM): YES
solids at ambient conditions (in words) ([3]; listed as 3 m potassium taurinate): solids are formed

Structure (SMILES): NCCCS(=O)(=O)O [5 m homotaurine, homotaurine]
solubility of CO2-loaded solution (in words) [2]: highly soluble with no precipitation
Precipitation Temperature ([2]; Loading 0.35 mol CO2/mol alk.): <−10 °C
Precipitation Temperature ([2]; Loading 0.40 mol CO2/mol alk.): <−10 °C
Precipitation Temperature ([2]; Loading 0.45 mol CO2/mol alk.): <−10 °C

Now from value to compound:

solids at ambient conditions (in words) ([3]; listed as 5 m taurine): solids are observed
Structure (SMILES): NCCS(=O)(=O)O [5 m TAU, taurine]

precipitation when 9 mol % CO2 continuously injected (in words) [1]: did not precipitate
Structure (SMILES): NCCC(=O)O [5 m b-ALA, Beta-alanine]
